Results published in US11649236B2, “Polycyclic carbamoylpyridone derivative” (Shionogi & Co., Ltd., priority 2018, dated 2023).

What was measured:
HIV = experiment: Anti-HIV activity (MT-4 cells, MTT); format: cell-based; conditions: Human immunodeficiency virus 1, MT4, 96 h, cultured 4 days
Experimental: Serial dilutions of a test sample were prepared in a 96-well microplate (50 μL/well). 2.5×10^5 cells/mL of a MT-4 cell suspension was dispensed at 100 μL/well to the plate containing the test sample. Then, an HIV virus solution was dispensed at 50 μL/well. The plate was mixed with a plate mixer and cultured for 4 days in a CO2 incubator. An MTT (3-(4,5-dimethylthiazol-2-yl)-2,5-diphenyltetrazolium bromide) solution was dispensed at 30 μL/well. The plate was reacted for 1 hour in a CO2 incubator. 150 μL of the supernatant was removed from each well so as not to take up the cells. 150 μL of a cell lysis solution was added to each well and well mixed with a plate mixer until the cells were completely lysed. The absorbance of the mixed plate was measured at two wavelengths of 560 nm and 690 nm with a microplate reader.

Metabolic stability test = format: in vitro ADME, human; set-up: key: % remaining vs amount at 0 min (=100%)
Experimental: Commercially available pooled human liver microsomes were reacted with the compound of the present invention for a certain time. A residual rate was calculated by the comparison between the reacted sample and an unreacted sample to evaluate the degree at which the compound of the present invention is metabolized in the liver. A reaction was performed (oxidative reaction) at 37° C. for 0 minutes or 30 minutes in the presence of 1 mmol/L NADPH in 0.2 mL of a buffer (50 mmol/L Tris-HCl pH 7.4, 150 mmol/L potassium chloride, 10 mmol/L magnesium chloride) containing 0.5 mg protein/mL of human liver microsomes. After the reaction, 50 μL of the reaction solution was added to 100 μL of a solution of methanol/acetonitrile=1/1 (v/v) and mixed, and the mixture was centrifuged at 3000 rpm for 15 minutes. The compound of the present invention in the centrifugation supernatant was quantified by LC/MS/MS or solid-phase extraction (SPE)/MS. The amount of the compound of the present invention remaining after the reaction was calculated with the amount of the compound at 0 minutes of the reaction defined as 100%.

[1] = system: HIV mutant strain 2 (E92Q/E138T/G140S/Q148H); experiment: Resistance evaluation test (HeLa-CD4 reporter), mutant strain 2; format: cell-based; conditions: FC=EC50 of mutant strain/EC50 of wild strain, HeLa-CD4 cells
Experimental: (§1) Serial dilutions of a test sample were prepared in a96-well microplate (50 μL/well). 2.5×10^5 cells/mL of a HeLa-CD4 cell suspension was dispensed at 100 μL/well to the plate containing the test sample. Then, an HIV virus solution (wild strain and mutant strain) was dispensed at 50 μL/well. The plate was mixed with a plate mixer and cultured for 3 days in a CO2 incubator. The culture supernatant in each well was removed by suction. A cell lysis buffer in a reporter assay kit was dispensed at 100 μL/well, and the plate was frozen in a freezer (−80° C.). The plate frozen in a freezer was thawed at room temperature, then mixed with a plate mixer, and centrifuged at 1,200 rpm for 5 minutes. The supernatant of each well was dispensed at 20 μL/well to a 96-well microplate (BLACK). A chemiluminescent reagent in the reporter assay kit was dispensed at 100 μL/well and reacted at room temperature for approximately 1 hour. Then, luminescence intensity was measured using MicroBeta TRILUX. […] FC=EC50 of mutant strain/EC50 of wild strain (Results) FC for the mutant strain 1 (E138K/G140S/Q148H/N155H) and FC for the mutant strain 2 (E92Q/E138T/G140S/Q148H) are shown in the table.

[2] = system: HIV mutant strain 1 (E138K/G140S/Q148H/N155H); experiment: Resistance evaluation test (HeLa-CD4 reporter), mutant strain 1; format: cell-based; conditions: FC=EC50 of mutant strain/EC50 of wild strain, HeLa-CD4 cells
Experimental: as §1

[3] = compound 0.5 μmol/L, human liver microsomes 0.5 mg protein/mL, NADPH, 37° C., 30 minutes, amount at 0 minutes defined as 100%

SMILES | EC50 (HIV) | residual rate (Metabolic stability test; [3]) | FC mutant strain 2 [1] | FC mutant strain 1 [2] | residual rate (Metabolic stability test; human, 30 min, 0.5 μmol/L, pH 7.4)
CCN1C(=O)c2c(O)c(=O)c(C(=O)NCc3ccc(F)cc3F)cn2N2CCCC[C@@]12C [Compound I-006] | 0.76 nM | 92.5 | 16 | 24 | –
CCN1C(=O)c2c(O)c(=O)c(C(=O)NCc3c(F)cc(F)cc3F)cn2N2CCCC[C@@H]12 [Compound I-011] | 2.2 nM | 88 | 10 | 13 | –
CC(C)N1C(=O)c2c(O)c(=O)c(C(=O)NCc3c(F)cc(F)cc3F)cn2N2C[C@@H]3CC[C@@H](O3)[C@@H]12 [II-005] | 0.62 nM | 80.2 | 7.4 | 3.1 | –
COC[C@@H]1CC[C@H]2N(C(C)C)C(=O)c3c(O)c(=O)c(C(=O)NCc4ccccc4F)cn3N12 [II-009] | 2.6 nM | 80.8 | 7.7 | 4.6 | –
CC(C)N1C(=O)c2c(O)c(=O)c(C(=O)NCc3ccccc3F)cn2N2C[C@@H]3CC[C@@H](O3)[C@@H]12 [II-013] | 0.4 nM | 87 | 6.4 | 5.6 | –
CCN1C(=O)c2c(O)c(=O)c(C(=O)NCc3c(F)cc(F)cc3F)cn2N2C[C@@H]3CC[C@@H](C3)[C@@H]12 [II-015] | 0.95 nM | 74.3 | 7.3 | 5.7 | –
CCN1C(=O)c2c(O)c(=O)c(C(=O)NCc3ccc(F)cc3F)cn2N2C[C@@H]3CCC[C@@H](C3)[C@@H]12 [II-018] | 2.9 nM | 77.6 | 8.7 | 6.1 | –
CCN1C(=O)c2c(O)c(=O)c(C(=O)NCc3c(F)cc(F)cc3F)cn2N2C[C@@H](C)CC[C@@H]12 [II-020] | 1.5 nM | 90.7 | 8.9 | 6.4 | –
CC(C)N1C(=O)c2c(O)c(=O)c(C(=O)NCc3ccc(F)cc3F)cn2N2C[C@@H]3CC[C@@H](O3)[C@@H]12 [II-021] | 0.72 nM | 89.1 | 9 | 6.6 | –
CN1C(=O)c2c(O)c(=O)c(C(=O)NCc3cccc(Cl)c3F)cn2N2CCCC[C@@H]12 [II-022] | 0.74 nM | 101 | 7.7 | 6.8 | –
CCN1C(=O)c2c(O)c(=O)c(C(=O)NCc3ccc(F)cc3F)cn2N2CC[C@@H](C)C[C@@H]12 [II-023] | 0.46 nM | 82.9 | 4.2 | 7 | –
C[C@H]1CC[C@H]2N(C)C(=O)c3c(O)c(=O)c(C(=O)NCc4cccc(Cl)c4F)cn3N2C1 [II-024] | 1.4 nM | 84.1 | 7 | 7.3 | –
CC(C)N1C(=O)c2c(O)c(=O)c(C(=O)NCc3ccc(F)cc3F)cn2N2CCOC[C@@H]12 [II-026] | 0.18 nM | 87.5 | 14 | 8.1 | –
CCN1C(=O)c2c(O)c(=O)c(C(=O)NCc3ccc(F)cc3F)cn2N2C[C@@H](COC)C[C@@H]12 [II-041] | 0.66 nM | 94.3 | 28 | 15 | –
C[C@H]1C[C@H]2N(C)C(=O)c3c(O)c(=O)c(C(=O)NCc4cccc(Cl)c4F)cn3N2C1 [II-042] | 3.2 nM | 97.4 | 7.9 | 15 | –
CCN1C(=O)c2c(O)c(=O)c(C(=O)NCc3c(F)cc(F)cc3F)cn2N2C[C@@H]3CC[C@@H](O3)[C@@H]12 [II-046] | 0.19 nM | 88.4 | 28 | 17 | –
CC(C)N1C(=O)c2c(O)c(=O)c(C(=O)NCc3c(F)cc(F)cc3F)cn2N2[C@H]3COC[C@H]3C[C@@H]12 [II-048] | 0.55 nM | – | 34 | 17 | 73.3
CCN1C(=O)c2c(O)c(=O)c(C(=O)NCc3c(F)cc(F)cc3F)cn2N2C[C@@H](C)C[C@@H]12 [II-049] | 0.77 nM | 83.2 | 17 | 18 | –
C[C@@H]1CCN2[C@@H](C1)N(C)C(=O)c1c(O)c(=O)c(C(=O)NCc3c(F)cc(F)cc3F)cn12 [II-130] | 0.13 nM | – | – | – | –
CCN1C(=O)c2c(O)c(=O)c(C(=O)NCc3ccc(F)cc3F)cn2N2[C@H](C)CC[C@@]12C [II-131] | 0.49 nM | – | – | – | –
CCN1C(=O)c2c(O)c(=O)c(C(=O)NCc3ccc(F)cc3F)cn2N2CC[C@@H](C(F)(F)F)C[C@@H]12 [II-132] | 0.51 nM | – | – | – | –

SMILES | EC50 (HIV) | residual rate (Metabolic stability test; [3]) | FC mutant strain 2 [1] | FC mutant strain 1 [2] | residual rate (Metabolic stability test; human, 30 min, 0.5 μmol/L, pH 7.4)
CCN1C(=O)c2c(O)c(=O)c(C(=O)NCc3cccc(Cl)c3)cn2N2CCCC[C@@H]12 [II-134] | 3 nM | – | – | – | –
CCN1C(=O)c2c(O)c(=O)c(C(=O)NCc3nn(C)cc3Cl)cn2N2CCCC[C@@H]12 [II-135] | 18 nM | – | – | – | –
CC[C@@H](NC(=O)c1cn2c(c(O)c1=O)C(=O)N(CC)[C@@H]1CCCCN12)c1ccc(F)cc1F [II-137] | 33 nM | – | – | – | –
C[C@@H]1CC[C@H]2N(C)C(=O)c3c(O)c(=O)c(C(=O)NCc4ccc(Cl)cc4F)cn3N12 [II-138] | 2.1 nM | – | – | – | –
CN1C(=O)c2c(O)c(=O)c(C(=O)NCc3c(F)cc(F)cc3F)cn2N2CC3(CC3)C[C@@H]12 [II-139] | 0.62 nM | – | – | – | –
CCN1C(=O)c2c(O)c(=O)c(C(=O)NCc3ccc(Cl)cc3)cn2N2CCCC[C@@H]12 [II-140] | 3.6 nM | – | – | – | –
CCN1C(=O)c2c(O)c(=O)c(C(=O)NCc3ncc(F)cc3F)cn2N2CCCC[C@@H]12 [II-141] | 0.65 nM | – | – | – | –
CCN1C(=O)c2c(O)c(=O)c(C(=O)NCc3cc(F)cc(F)c3F)cn2N2CCCC[C@@H]12 [II-142] | 0.74 nM | – | – | – | –
CCN1C(=O)c2c(O)c(=O)c(C(=O)NCc3ccc(F)cc3F)cn2N2CCN(c3ccccc3)C[C@@H]12 [II-143] | 3.2 nM | – | – | – | –
CCN1C(=O)c2c(O)c(=O)c(C(=O)NCc3ccc(F)cc3F)cn2N2[C@@H]3COC[C@@H]3C[C@@H]12 [II-145] | 0.68 nM | – | – | – | –
CCN1C(=O)c2c(O)c(=O)c(C(=O)NCc3ccc(F)cc3F)cn2N2CCN(c3ncccn3)C[C@@H]12 [II-146] | 1.6 nM | – | – | – | –
O=C(NCc1ccc(F)cc1F)c1cn2c(c(O)c1=O)C(=O)N1CCCC[C@]13CCCCN23 [II-147] | 0.66 nM | – | – | – | –
CCN1C(=O)c2c(O)c(=O)c(C(=O)NCc3c(F)cccc3Cl)cn2N2CCCC[C@@H]12 [II-148] | 0.5 nM | – | – | – | –
CCN1C(=O)c2c(O)c(=O)c(C(=O)NCc3ccc(F)cc3F)cn2N2C[C@@]3(CCOC3)C[C@@H]12 [II-149] | 1.2 nM | – | – | – | –
CCN1C(=O)c2c(O)c(=O)c(C(=O)NCc3ccc(F)cc3F)cn2N2[C@H](COC)CCC[C@@H]12 [II-150] | 0.55 nM | – | – | – | –
CN1C(=O)c2c(O)c(=O)c(C(=O)NCc3cccc(Cl)c3F)cn2N2CC[C@H](C(F)(F)F)C[C@@H]12 [II-151] | 1.6 nM | – | – | – | –
CN1C(=O)c2c(O)c(=O)c(C(=O)NCc3cccc(Cl)c3F)cn2N2C[C@@H]3CCC[C@@H](O3)[C@@H]12 [II-152] | 0.7 nM | – | – | – | –
CCN1C(=O)c2c(O)c(=O)c(C(=O)NCc3ccc(F)cc3F)cn2N2Cc3ccc(F)cc3[C@@]12C [II-154] | 0.67 nM | – | – | – | –
CCN1C(=O)c2c(O)c(=O)c(C(=O)NCc3ccc(F)cc3F)cn2N2[C@H](C)c3cc(F)ccc3[C@@H]12 [II-155] | 1.2 nM | – | – | – | –
CN1C(=O)c2c(O)c(=O)c(C(=O)NCc3c(F)cc(F)cc3F)cn2N2C[C@H]3C[C@H](C3)[C@@H]12 [II-158] | 0.27 nM | – | – | – | –
CCN1C(=O)c2c(O)c(=O)c(C(=O)NCc3ccc(F)cc3F)cn2N2CCCC[C@@]12CC [II-159] | 0.56 nM | – | – | – | –
